Test results: patent publication US20240425891A1, “Host cells and methods for improved polyketide production using methylmalonyl-CoA-dependent polyketide synthase (PKS)” (THE REGENTS OF THE UNIVERSITY OF CALIFORNIA, priority 2023, published 2024)

How the values were obtained:
C. glutamicum Cz034 = experiment: Propionate tolerance of Cz034 in CGXII minimal medium (growth curve); type: cell-based, Corynebacterium glutamicum
Protocol: Propionate tolerance was first evaluated using Cz034 in CGXII minimal medium to evaluate the highest propionate concentration for ALE. The lag phase increased as the propionate concentration increased, and no growth was observed when the propionate concentration was over 8,000 mg/L (Extended Data FIG. S11a, b). Then, ALE was applied to improve propionate tolerance and germicidin production in Cz12 by repeatedly growing the strains in increasing concentrations of propionate until we reached 8,000 mg/L (Extended Data FIG. S12). After two months of evolution, 563 single colonies were picked up from plates. Most of them grew faster than the initial strain (Extended Data FIG. S13a, b, c, d). […] To clarify whether the increased germicidin production improved methylmalonyl-CoA utilization, germicidin titer was measured on evolved strains.
Colony PCR. Pick up colonies from plate and cultivate in BHI medium (30° C., 200 rpm) overnight (around 14-16 h). Prepare digestion solution (120 μL zymolase (E1005, ZYMO RESEARCH) and 2500 μL PBS pH=7.2) for 96 reactions. Take 3-5 μL overnight culture into 20 μL digestion solution, 30° C. for 1 h. Add 3-5 μL dimethyl sulfoxide (DMSO), then 98° C. for 10 min. Take 2 μL for 50 μL PCR reaction. Growth curve measurement. Various cells were pre-cultivated in BHI liquid medium (30° C., 200 rpm) overnight. […] Growth curve was measured by SpectraMaX M2e at 30° C.

hexokinase (HK2) = biological target: T1, hexokinase (HK2) (Homo sapiens, UniProt P52789); details: literature reference 36; cited from earlier work
T1 sequence (P52789 1-917): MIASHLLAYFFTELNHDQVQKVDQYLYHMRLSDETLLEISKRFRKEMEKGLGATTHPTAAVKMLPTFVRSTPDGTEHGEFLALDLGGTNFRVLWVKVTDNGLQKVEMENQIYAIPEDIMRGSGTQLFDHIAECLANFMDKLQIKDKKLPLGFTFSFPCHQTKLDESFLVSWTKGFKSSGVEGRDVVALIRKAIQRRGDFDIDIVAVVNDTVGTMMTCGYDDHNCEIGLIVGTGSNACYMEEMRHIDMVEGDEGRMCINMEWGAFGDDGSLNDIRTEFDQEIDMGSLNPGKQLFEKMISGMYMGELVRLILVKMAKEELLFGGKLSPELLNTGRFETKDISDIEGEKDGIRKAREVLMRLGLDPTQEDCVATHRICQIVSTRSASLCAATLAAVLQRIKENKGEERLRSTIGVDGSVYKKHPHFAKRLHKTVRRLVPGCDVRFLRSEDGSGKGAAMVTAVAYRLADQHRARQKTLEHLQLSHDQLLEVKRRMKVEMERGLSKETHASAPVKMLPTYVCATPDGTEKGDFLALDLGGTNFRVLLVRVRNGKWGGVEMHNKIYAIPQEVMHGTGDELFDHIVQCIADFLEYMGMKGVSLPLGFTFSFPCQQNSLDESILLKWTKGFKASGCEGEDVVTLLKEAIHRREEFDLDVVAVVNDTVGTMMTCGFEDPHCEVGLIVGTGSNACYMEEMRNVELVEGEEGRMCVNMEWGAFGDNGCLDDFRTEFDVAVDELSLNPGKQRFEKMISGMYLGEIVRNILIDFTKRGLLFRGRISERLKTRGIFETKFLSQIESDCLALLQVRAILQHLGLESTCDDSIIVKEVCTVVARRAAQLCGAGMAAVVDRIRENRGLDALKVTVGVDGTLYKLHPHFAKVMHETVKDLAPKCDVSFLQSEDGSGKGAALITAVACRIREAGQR

Row | Compound | propionate concentration above which no growth was observed (C. glutamicum Cz034) | IC50 on hexokinase (HK2) (hexokinase (HK2))
1 | CCC(=O)O [propionate] | over 8,000 mg/L | –
2 | germicidin | – | 780 µg/mL
